According to US7982042B2, “Thiozanthene derivatives as delta-opioid modulators” (priority 2003, dated 2011):
Where two headings read alike, the source gives them in different places.

Assays:
[1] = biological target: T1, human delta opioid receptor (Homo sapiens, UniProt P41143); assay: [35S]GTPγS binding assay in CHO-hδ cell membranes; type: biochemical; conditions: hDOR GTPγS EC50, human delta opioid receptor GTPγS functional assay
T1 construct: purchased Receptor Biology, Inc. (Baltimore, Md.); host or cells: CHO cells expressing the human delta receptor (membranes)
T1 sequence (P41143 whole entry): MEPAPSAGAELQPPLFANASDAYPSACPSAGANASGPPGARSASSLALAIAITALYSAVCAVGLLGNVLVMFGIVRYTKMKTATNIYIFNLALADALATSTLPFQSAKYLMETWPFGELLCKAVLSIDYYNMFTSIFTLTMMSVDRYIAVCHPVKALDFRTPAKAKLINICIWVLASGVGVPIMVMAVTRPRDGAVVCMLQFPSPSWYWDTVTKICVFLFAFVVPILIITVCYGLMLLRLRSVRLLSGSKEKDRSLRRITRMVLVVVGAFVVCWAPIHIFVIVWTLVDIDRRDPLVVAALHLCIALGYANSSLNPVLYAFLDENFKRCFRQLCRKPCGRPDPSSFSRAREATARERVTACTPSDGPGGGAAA

delta opioid receptor = biological target: T2, delta opioid receptor (Mus musculus, UniProt P32300); assay: [35S]GTPγS binding assay in NG108-15 cell membrane; type: biochemical; conditions: DOR GTPγS EC50, delta opioid receptor GTPγS functional assay
T2 construct: host or cells: NG108-15 cells (membranes, purchased)
T2 sequence (P32300 whole entry): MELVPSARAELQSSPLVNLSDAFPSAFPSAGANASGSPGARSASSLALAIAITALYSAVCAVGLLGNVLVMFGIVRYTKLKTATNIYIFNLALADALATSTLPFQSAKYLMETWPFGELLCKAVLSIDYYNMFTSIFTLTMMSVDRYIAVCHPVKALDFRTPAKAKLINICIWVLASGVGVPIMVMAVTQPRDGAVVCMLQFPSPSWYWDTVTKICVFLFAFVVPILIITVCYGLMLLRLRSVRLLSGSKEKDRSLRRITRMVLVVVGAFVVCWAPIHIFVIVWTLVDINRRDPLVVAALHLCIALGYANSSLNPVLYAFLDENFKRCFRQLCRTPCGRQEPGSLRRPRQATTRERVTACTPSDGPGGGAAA
Description: NG108-15 cell membranes were purchased from Applied Cell Sciences (Rockville, Md.). An 8 mg/mL portion of membrane protein was suspended in 10 mM TRIS-HC pH 7.2, 2 mM EDTA, 10% sucrose.
Membranes were maintained at 4-8° C. A 1 mL portion of membranes was added into 10 mL cold binding assay buffer. The assay buffer contained 50 mM Tris, pH 7.6, 5 mM MgCl2, 100 mM NaCl, 1 mM DTT and 1 mM EGTA. The membrane suspension was homogenized with a Polytron for 2 times and centrifuged at 3000 rpm for 10 min. The supernatent was then centrifuged at 18,000 rpm for 20 min. The pellet was saved in a tube and 10 ml assay buffer was added into the tube. The pellet and buffer were mixed with a Polytron.
The pellet membranes (75 μg/ml) were preincubated with SPA (10 mg/ml) at 25° C. for 45 min in the assay buffer. […] GTPγS in the same Tris buffer containing 100 μM GDP in total volume of 200 μl. Increasing concentrations of receptor agonists were used to stimulate [^35S] GTPγS binding. The basal binding was tested in the absent agonists and no specific binding was tested in the present 10 μM unlabeled GTPγS. The data were analyzed on a Top counter.
% of Basal=(stimulate−non specific)*100/(basal−non specific). EC50 values are calculated using a Prism program.

[2] = biological target: T3, Rat brain mu opioid receptor (Rattus norvegicus, UniProt P33535); assay: Rat brain mu opioid receptor binding assay ([3H]DAMGO)
T3 construct: from tissue; host or cells: forebrain of male Sprague Dawley rats
T3 sequence (P33535 whole entry): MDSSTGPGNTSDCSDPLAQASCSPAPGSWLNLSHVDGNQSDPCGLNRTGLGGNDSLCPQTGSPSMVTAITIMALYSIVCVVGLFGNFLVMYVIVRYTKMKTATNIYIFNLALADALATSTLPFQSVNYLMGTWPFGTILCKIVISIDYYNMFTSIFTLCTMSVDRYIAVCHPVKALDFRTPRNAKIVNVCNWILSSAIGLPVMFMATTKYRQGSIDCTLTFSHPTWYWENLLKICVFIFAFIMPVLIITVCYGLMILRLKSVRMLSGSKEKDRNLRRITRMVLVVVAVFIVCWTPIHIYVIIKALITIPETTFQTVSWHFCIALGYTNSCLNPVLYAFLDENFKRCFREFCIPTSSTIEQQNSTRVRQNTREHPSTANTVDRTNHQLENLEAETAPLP

[3] = biological target: T4, Rat brain delta opioid receptor (Rattus norvegicus, UniProt P33533); assay: Rat brain delta opioid receptor binding; conditions: rDOR Ki
T4 construct: from tissue; host or cells: rat brain
T4 sequence (P33533 whole entry): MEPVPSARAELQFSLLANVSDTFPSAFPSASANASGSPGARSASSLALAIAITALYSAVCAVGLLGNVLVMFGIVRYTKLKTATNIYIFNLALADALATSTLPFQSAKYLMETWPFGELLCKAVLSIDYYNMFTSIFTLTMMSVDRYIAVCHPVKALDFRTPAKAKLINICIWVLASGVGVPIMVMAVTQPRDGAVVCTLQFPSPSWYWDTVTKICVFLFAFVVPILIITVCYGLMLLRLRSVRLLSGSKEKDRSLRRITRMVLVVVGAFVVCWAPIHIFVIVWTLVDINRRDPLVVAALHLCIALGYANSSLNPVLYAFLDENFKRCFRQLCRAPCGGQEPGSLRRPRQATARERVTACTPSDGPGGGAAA

mice = assay: Mouse Abdominal Irritant Test (MAIT); type: in vivo; conditions: @ 30 (dose printed in the cell)
Description: The procedure used was that described by Collier et al. (1968), with minor modifications. Thirty minutes after the administration of test drug, the animals received an i.p. injection of 5.5 mg/kg of acetylcholine bromide. The mice were then placed into large glass animal jars and were continuously observed for the first occurrence of a characteristic behavioral response (twisting and elongation of the body which extends throughout the hindlimbs) within the specified observation period of 10 minutes. […] Data % of Basal=(stimulate−non-specific)*100/(basal−non-specific). EC50 value values are calculated using a Prism program.

human mu opioid receptor = biological target: T5, human mu opioid receptor (Homo sapiens, UniProt P35372); assay: [35S]GTPγS binding assay in CHO-hμ cell membranes; type: biochemical; conditions: inhibition relative to 1 uM DAMGO, read-out: hMOR GTPγS % I @10 μM
T5 construct: purchased Receptor Biology, Inc. (Baltimore, Md.); host or cells: CHO cells expressing the human mu receptor (membranes)
T5 sequence (P35372 whole entry): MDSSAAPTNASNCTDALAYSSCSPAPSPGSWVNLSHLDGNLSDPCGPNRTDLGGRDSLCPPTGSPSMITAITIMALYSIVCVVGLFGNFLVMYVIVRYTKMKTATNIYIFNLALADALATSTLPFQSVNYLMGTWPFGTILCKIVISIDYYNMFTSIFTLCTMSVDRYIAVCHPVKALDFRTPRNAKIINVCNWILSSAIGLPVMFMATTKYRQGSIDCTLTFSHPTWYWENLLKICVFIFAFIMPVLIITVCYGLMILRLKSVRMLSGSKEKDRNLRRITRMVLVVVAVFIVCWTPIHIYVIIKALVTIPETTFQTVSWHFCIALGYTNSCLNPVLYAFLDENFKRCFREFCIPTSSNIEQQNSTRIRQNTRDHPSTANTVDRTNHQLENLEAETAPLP
Description: CHO-hμ cell membranes are purchased from Receptor Biology, Inc. (Baltimore, Md.). About 10 mg/ml of membrane protein is suspended in 10 mM TRIS-HC pH 7.2, 2 mM EDTA, 10% sucrose.
Membranes are maintained at 4-8° C. 1 ml of membranes is added into 15 ml cold binding assay buffer. The assay buffer contains 50 mM HEPES, pH 7.6, 5 mM MgCl2, 100 mM NaCl, 1 mM DTT and 1 mM EDTA. The membrane suspension is homogenized with a Polytron 2 times and centrifuged at 3000 rpm for 10 min. The supernatant is then centrifuged at 18,000 rpm for 20 min. The pellet is saved in a tube and 10 ml assay buffer is added to the tube. The pellet and buffer are mixed with a Polytron.
The pellet membranes (20 μg/ml) are preincubated with SPA (10 mg/ml) at 25 C′ for 45 min in the assay buffer. The SPA (5 mg/ml) coupled with membranes (10 μg/ml) is then incubated with 0.5 nM [^35S]GTPgS in the same HEPES buffer containing 50 μM GDP in total volume of 200 μl. Increasing concentrations of receptor agonists are used to stimulate [^35S]GTPgS binding. The basal binding is tested in the absence of agonists and non-specific binding is tested in the present 10 μM unlabeled GTPγS. The data are analyzed on a Top counter.
% of Basal=(stimulate−non-specific)*100/(basal−non specific). % inhibition value values are calculated using a formula, % Inhibition=(% Basal of 1 uM DAMGO−% Basal of compound)*100/(% Basal of 1 uM DAMGO−100)

SMILES | EC50 [1] | EC50 (delta opioid receptor) | Ki ([2]; rMOR Ki) | Ki [3] | Ki ([2]; read-out: rMOR Ki) | MAIT % I (mice) | inhibition at 10 µM (human mu opioid receptor)
CCN(CC)C(=O)c1ccc2c(c1)Oc1ccccc1C2=C1CC2CCC(C1)N2 (single isomer, unassigned) [Compound 52, 9-(8-Aza-bicyclo[3.2.1]oct-3-ylidene)-9H-xanthene-3-carboxylic acid diethylamide] | 4.44 nM | 66 nM | > 100 nM | 0.61 nM |  |  | 
CCN(CC)C(=O)c1ccc2c(c1)Oc1ccccc1C2=C1CC2CCC(C1)N2 (single isomer, unassigned) [Compound 53, 9-(8-Aza-bicyclo[3.2.1]oct-3-ylidene)-9H-xanthene-3-carboxylic acid diethylamide] | 257 nM | 2060 nM |  | 50.1 nM | > 100 nM |  | 
CCN(CC)C(=O)c1ccc2c(c1)Oc1ccccc1C2=C1CC2CCC(C1)N2Cc1ccoc1 [Compound 25, 9-(8-Furan-3-ylmethyl-8-aza-bicyclo[3.2.1]oct-3-ylidene)-9H-xanthene-3-carboxylic acid diethylamide] | 1.39 nM |  | 879 nM | 0.01 nM |  | 30(@ 30) % | 74%
CCN(CC)C(=O)c1ccc2c(c1)Oc1c(cccc1-c1cccnc1)C2=C1CC2CCC(C1)N2 [Compound 101, 9-(8-Aza-bicyclo[3.2.1]oct-3-ylidene)-5-pyridin-3-yl-9H-xanthene-3-carboxylic acid diethylamide] |  | 19.3 nM | 532 nM | 9.14 nM |  |  | 
